≈ marks a conversion by molar mass, not a printed value. Where two headings read alike, the source gives them in different places.
Assays:
[1] = tested on: Acinetobacter baumannii/haemolyticus: Multidrug-resistant clinical isolate (AB-3167); experiment: MIC determination (CLSI), AB-3167; type: cell-based; details: read-out: AB-3167 (MIC)
In short: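 Broth dilution MIC per CLSI M7-A8, 2-fold concentration steps, overnight incubation, visual read of lowest concentration inhibiting growth versus drug-free control. Tested in duplicate; lower value reported if within 2-fold, otherwise repeated; QC organisms and reference drugs required within range.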

[2] = tested on: Klebsiella pneumoniae: Ciprofloxacin-resistant isolate, expresses ESBL, clinical isolate (KP-3700); experiment: MIC determination (CLSI), KP-3700; type: cell-based; details: overnight incubation, lower of duplicate values
In short: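 Broth dilution MIC per CLSI M7-A8 against the ciprofloxacin-resistant, ESBL-expressing clinical isolate, 2-fold concentration steps, overnight incubation, visual read of lowest growth-inhibiting concentration. Tested in duplicate; lower value reported when within 2-fold; control organisms and reference compounds required within range.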

[3] = tested on: Pseudomonas aeruginosa UI-18: Wild-type (PA-7); experiment: MIC determination (CLSI), PA-7; type: cell-based; details: read-out: PA-7 (MIC)
In short: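 Broth dilution MIC per CLSI M7-A8, using 2-fold compound dilutions incubated overnight; MIC is the lowest concentration with no visible growth versus the drug-free control. Run in duplicate, lower value reported when within 2-fold. Control organisms and reference compounds were included for QC.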

[4] = target: T1, Pseudomonas aeruginosa LpxC enzyme (Pseudomonas aeruginosa, UniProt P47205); experiment: IC50 assay, LpxC enzyme from P. aeruginosa (BioTrove RapidFire mass spectrometry); type: biochemical
T1 construct: made in house; host or cells: E. coli
T1 sequence (P47205 1-303): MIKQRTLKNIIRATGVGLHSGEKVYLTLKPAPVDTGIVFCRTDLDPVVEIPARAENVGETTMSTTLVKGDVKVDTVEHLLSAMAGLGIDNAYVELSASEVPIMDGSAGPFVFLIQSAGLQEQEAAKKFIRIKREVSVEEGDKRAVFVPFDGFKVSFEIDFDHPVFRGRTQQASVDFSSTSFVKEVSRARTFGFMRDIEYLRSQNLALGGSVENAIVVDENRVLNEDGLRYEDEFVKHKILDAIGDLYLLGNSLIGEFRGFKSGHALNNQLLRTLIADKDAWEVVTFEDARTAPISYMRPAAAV
In short: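 P. aeruginosa LpxC reaction run 1 hour, stopped with 1 N HCl, and substrate-to-product conversion quantified by RapidFire mass spectrometry. IC50 calculated from percent conversion using a no-enzyme control.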

[5] = tested on: Escherichia coli EC-1: VOGEL, mouse virulent; experiment: MIC determination (CLSI), EC-1; type: cell-based; details: Escherichia coli, read-out: EC-1 (MIC)
In short: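 Broth dilution MIC per CLSI M7-A8, with 2-fold compound dilutions incubated overnight with a standard inoculum. MIC is the lowest concentration visibly inhibiting growth versus drug-free control; tested in duplicate, reporting the lower value when within 2-fold, with QC organisms and reference compounds required in range.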

[6] = Acinetobacter baumannii/haemolyticus multidrug-resistant clinical isolate, overnight incubation, lower of duplicate values
[7] = Pseudomonas aeruginosa UI-18 wild-type, overnight incubation, lower of duplicate values
[8] = P. aeruginosa LpxC enzyme 0.1 nM, 25° C., 1 hour, pH 8.0, read-out: PA: IC50

Row | Structure (SMILES) | MIC [1, 6] | KP-3700 (MIC) [2] | MIC [3, 7] | IC50 [4, 8] | MIC [5] | MIC ([1]; Acinetobacter baumannii) | MIC ([3]; Pseudomonas aeruginosa) | IC50 [4]
1 | COc1ccc(-c2cnn(CCC(C)(C(=O)NO)S(C)(=O)=O)c2)cc1OC (centres unmarked) [Example 65, 4-[4-(3,4-dimethoxyphenyl)-1H-pyrazol-1-yl]-N-hydroxy-2-methyl-2-(methylsulfonyl)butanamide] | > 64 µg/mL | >64.0 µg/mL | > 64 µg/mL | 93.2 nM | > 64 µg/mL | – | – | –
2 | CC(CCn1cc(-c2cccc(OC(F)(F)F)c2)cn1)(C(=O)NO)S(C)(=O)=O (centres unmarked) [Example 88, N-hydroxy-2-methyl-2-(methylsulfonyl)-4-{4-[3-(trifluoromethoxy)phenyl]-1H-pyrazol-1-yl}butanamide] | 64 µg/mL (≈ 152 µM) | >64.0 µg/mL | 8 µg/mL (≈ 19 µM) | 0.652 nM | 32 µg/mL (≈ 75.9 µM) | – | – | –
3 | CC(CCn1cc(CSc2ccc(Cl)cc2)nn1)(C(=O)NO)S(C)(=O)=O (centres unmarked) [Example 29, 4-(4-{[(4-chlorophenyl)sulfanyl]methyl}-1H-1,2,3-triazol-1-yl)-N-hydroxy-2-methyl-2-(methylsulfonyl)butanamide] | > 64 µg/mL | >64.0 µg/mL | 32 µg/mL (≈ 76.4 µM) | 8.82 nM | > 64 µg/mL | – | – | –
4 | CCc1ccccc1SCc1cn(CCC(C)(C(=O)NO)S(C)(=O)=O)nn1 (centres unmarked) [Example 32, 4-(4-{[(2-ethylphenyl)sulfanyl]methyl}-1H-1,2,3-triazol-1-yl)-N-hydroxy-2-methyl-2-(methylsulfonyl)butanamide] | > 64 µg/mL | >64.0 µg/mL | > 64 µg/mL | 50.9 nM | > 64 µg/mL | – | – | –
5 | CC(CCn1cc(-c2ccccc2C#N)cn1)(C(=O)NO)S(C)(=O)=O (centres unmarked) [Example 46, 4-[4-(2-cyanophenyl)-1H-pyrazol-1-yl]-N-hydroxy-2-methyl-2-(methylsulfonyl)butanamide] | > 64 µg/mL | >64.0 µg/mL | 32 µg/mL (≈ 88.3 µM) | 72.5 nM | 4 µg/mL (≈ 11 µM) | – | – | –
6 | C[C@@](CCn1cc(-c2ccc(Cl)c(Cl)c2)nn1)(C(=O)NO)S(C)(=O)=O [Example 21, (2R)-4-[4-(3,4-dichlorophenyl)-1H-1,2,3-triazol-1-yl]-N-hydroxy-2-methyl-2-(methylsulfonyl)butanamide] | – | 32 µg/mL | – | – | 16 µg/mL (≈ 39.3 µM) | > 64 µg/mL | 2 µg/mL (≈ 4.91 µM) | 1.67 nM
7 | Cc1c(-c2ccccc2)nnn1CC[C@](C)(C(=O)NO)S(C)(=O)=O [Example 15, (2R)—N-hydroxy-2-methyl-4-(5-methyl-4-phenyl-1H-1,2,3-triazol-1-yl)-2-(methylsulfonyl)butanamide] | > 64 µg/mL | >64.0 µg/mL | 32 µg/mL (≈ 90.8 µM) | 21.3 nM | > 64 µg/mL | – | – | –
8 | Cc1cccc(-c2cnn(CCC(C)(C(=O)NO)S(C)(=O)=O)c2)c1 (centres unmarked) [Example 42, N-hydroxy-2-methyl-4-[4-(3-methylphenyl)-1H-pyrazol-1-yl]-2-(methylsulfonyl)butanamide] | > 64 µg/mL | >64.0 µg/mL | 4 µg/mL (≈ 11.4 µM) | 6.2 nM | 64 µg/mL (≈ 182 µM) | – | – | –
9 | CCOc1ccc(-c2cnn(CCC(C)(C(=O)NO)S(C)(=O)=O)c2)cc1C#N (centres unmarked) [Example 78, 4-[4-(3-cyano-4-ethoxyphenyl)-1H-pyrazol-1-yl]-N-hydroxy-2-methyl-2-(methylsulfonyl)butanamide] | > 64 µg/mL | >64.0 µg/mL | 64 µg/mL (≈ 157 µM) | 21.7 nM | > 64 µg/mL | – | – | –
10 | Cc1cc(-c2ccc(-c3cnn(CCC(C)(C(=O)NO)S(C)(=O)=O)c3)cc2)[nH]n1 (centres unmarked) [Example 84, N-hydroxy-2-methyl-4-{4-[4-(3-methyl-1H-pyrazol-5-yl)phenyl]-1H-pyrazol-1-yl}-2-(methylsulfonyl)butanamide] | > 64 µg/mL | >64.0 µg/mL | 64 µg/mL (≈ 153 µM) | 6.44 nM | 16 µg/mL (≈ 38.3 µM) | – | – | –
11 | Cc1c(F)cccc1-c1cnn(CCC(C)(C(=O)NO)S(C)(=O)=O)c1 (centres unmarked) [Example 53, 4-[4-(3-fluoro-2-methylphenyl)-1H-pyrazol-1-yl]-N-hydroxy-2-methyl-2-(methylsulfonyl)butanamide] | > 64 µg/mL | >64.0 µg/mL | 16 µg/mL (≈ 43.3 µM) | 9.28 nM | 32 µg/mL (≈ 86.6 µM) | – | – | –
12 | Cc1ccc2cc(-c3cnn(CCC(C)(C(=O)NO)S(C)(=O)=O)c3)ccc2n1 (centres unmarked) [Example 67, N-hydroxy-2-methyl-4-[4-(2-methylquinolin-6-yl)-1H-pyrazol-1-yl]-2-(methylsulfonyl)butanamide] | > 64 µg/mL | >64.0 µg/mL | 32 µg/mL (≈ 79.5 µM) | 12.1 nM | > 64 µg/mL | – | – | –
13 | CC(CCn1cc(-c2ccc3cc(C(N)=O)[nH]c3c2)cn1)(C(=O)NO)S(C)(=O)=O (centres unmarked) [Example 86, 6-{1-[4-(hydroxyamino)-3-methyl-3-(methylsulfonyl)-4-oxobutyl]-1H-pyrazol-4-yl}-1H-indole-2-carboxamide] | > 64 µg/mL | >64.0 µg/mL | > 64 µg/mL | 14.5 nM | > 64 µg/mL | – | – | –
14 | CC(CCn1cc(-c2ccc3c(c2)C(=O)CCC3)cn1)(C(=O)NO)S(C)(=O)=O (centres unmarked) [Example 75, N-hydroxy-2-methyl-2-(methylsulfonyl)-4-[4-(8-oxo-5,6,7,8-tetrahydronaphthalen-2-yl)-1H-pyrazol-1-yl]butanamide] | > 64 µg/mL | >64.0 µg/mL | 64 µg/mL (≈ 158 µM) | 7.17 nM | > 64 µg/mL | – | – | –
15 | CC(CCn1cc(-c2ccc3c(c2)C(=O)CC3)cn1)(C(=O)NO)S(C)(=O)=O (centres unmarked) [Example 61, N-hydroxy-2-methyl-2-(methylsulfonyl)-4-[4-(3-oxo-2,3-dihydro-1H-inden-5-yl)-1H-pyrazol-1-yl]butanamide] | > 64 µg/mL | >64.0 µg/mL | > 64 µg/mL | 38.6 nM | > 64 µg/mL | – | – | –
16 | C[C@@](CCn1cc(C2CCCC2)cn1)(C(=O)NO)S(C)(=O)=O [Example 3, (2R)-4-(4-cyclopentyl-1H-pyrazol-1-yl)-N-hydroxy-2-methyl-2-(methylsulfonyl)butanamide] | 64 µg/mL (≈ 194 µM) | 64 µg/mL | 8 µg/mL (≈ 24.3 µM) | 14.3 nM | 64 µg/mL (≈ 194 µM) | – | – | –
17 | CC(CCn1cc(COc2ccc3ccccc3c2)nn1)(C(=O)NO)S(C)(=O)=O (centres unmarked) [Example 30, N-hydroxy-2-methyl-2-(methylsulfonyl)-4-{4-[(naphthalen-2-yloxy)methyl]-1H-1,2,3-triazol-1-yl}butanamide] | > 64 µg/mL | >64.0 µg/mL | 32 µg/mL (≈ 76.5 µM) | 3.76 nM | > 64 µg/mL | – | – | –
18 | Cn1nccc1-c1ccc(-c2cnn(CCC(C)(C(=O)NO)S(C)(=O)=O)c2)cc1 (centres unmarked) [Example 82, N-hydroxy-2-methyl-4-{4-[4-(1-methyl-1H-pyrazol-5-yl)phenyl]-1H-pyrazol-1-yl}-2-(methylsulfonyl)butanamide] | > 64 µg/mL | 32 µg/mL | 16 µg/mL (≈ 38.3 µM) | 3.29 nM | 8 µg/mL (≈ 19.2 µM) | – | – | –
19 | CC(CCn1cc(-c2ccc(-c3cnco3)cc2)cn1)(C(=O)NO)S(C)(=O)=O (centres unmarked) [Example 72, N-hydroxy-2-methyl-2-(methylsulfonyl)-4-{4-[4-(1,3-oxazol-5-yl)phenyl]-1H-pyrazol-1-yl}butanamide] | > 64 µg/mL | 16 µg/mL | 2 µg/mL (≈ 4.95 µM) | 0.373 nM | 4 µg/mL (≈ 9.89 µM) | – | – | –
